Each block holds one compound with its values, some of them ahead of it.
Columns and labels:
BRD4(1) = target: T1, BRD4(1) (Homo sapiens, UniProt O60885); assay: AlphaScreen peptide displacement assay (ALPHA), BRD4(1); type: binding
T1 construct: amplify the N-terminal bromodomain region of the protein; made in house

MV4;11 (AML) cells = assay: MTS cytotoxicity assay, MV4;11 cells; type: cell-based; details: Homo sapiens, viability after 72 h
[1] = test system: A549 (lung adenocarcinoma) cells; assay: MTS cytotoxicity assay, A549 cells; type: cell-based; details: 100 μM, 72 h
Excerpt: (§1) We also investigated the effects of 8 and 9 in two lung adenocarcinoma cell lines, A549 and H1975. […] H1975 appeared to be somewhat more sensitive to these compounds, a finding confirmed by a clonogenic survival assay (Supporting Information Figure S5).
(§2) Viability of MV4;11, H549, and H1975 cells was monitored by MTS-based CellTiter 96 AQueous nonradioactive cell proliferation assay (Promega, Madison, WI). Viability of U2OS and HeLa cells was monitored by WST-based cell proliferation kit (Roche, Mannheim, Germany). Further details are provided in Supporting Information

[2] = test system: H1975 (lung adenocarcinoma) cells; assay: MTS cytotoxicity assay, H1975 cells; type: cell-based; details: 100 μM, 72 h
Excerpt: as §1, §2

BAZ2B = target: T2, BAZ2B (Homo sapiens, UniProt Q9UIF8); assay: ALPHA selectivity panel, BAZ2B; type: binding; details: 25 μM compound, ALPHA assay
T2 construct: the bromodomains from ATAD2, BAZ1A, BAZ2A, BAZ2B, BRD9, BRPF3, CECR2, GCN5L2, PHIP(1), PB1(1), and TIF1α; made in house
T2 sequence (Q9UIF8 2060-2164 limits assumed): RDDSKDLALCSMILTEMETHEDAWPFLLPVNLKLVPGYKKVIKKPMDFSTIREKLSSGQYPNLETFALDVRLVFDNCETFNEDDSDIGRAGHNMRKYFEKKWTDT
Method: (§3) The ALPHA assay was also used to determine the selectivity of 8, 9, and 17, 21–23 for BRD4(1) over the bromodomain of CREBBP (Table 2). […] The selectivity of 8 was further evaluated across a phylogenetically diverse range of bromodomains (Figure 5).
(§4) Bromodomain AlphaScreen assays were carried out as previously described.[24],[30] All experiments were carried out in duplicate on the same plate.

TIF1α = target: T3, TIF1α (Homo sapiens, UniProt O15164); assay: ALPHA selectivity panel, TIF1α; type: binding; details: 25 μM compound, ALPHA assay
T3 construct: the bromodomains from ATAD2, BAZ1A, BAZ2A, BAZ2B, BRD9, BRPF3, CECR2, GCN5L2, PHIP(1), PB1(1), and TIF1α; made in house
T3 sequence (O15164 899-1004 limits assumed): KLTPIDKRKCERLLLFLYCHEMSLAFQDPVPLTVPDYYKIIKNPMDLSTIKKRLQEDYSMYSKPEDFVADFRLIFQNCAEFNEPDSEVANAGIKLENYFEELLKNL
Method: as §3, §4

BRD9 = target: T4, BRD9 (Homo sapiens, UniProt Q9H8M2); assay: ALPHA selectivity panel, BRD9; type: binding; details: 25 μM compound, ALPHA assay
T4 construct: the bromodomains from ATAD2, BAZ1A, BAZ2A, BAZ2B, BRD9, BRPF3, CECR2, GCN5L2, PHIP(1), PB1(1), and TIF1α; made in house
T4 sequence (Q9H8M2 136-240 limits assumed): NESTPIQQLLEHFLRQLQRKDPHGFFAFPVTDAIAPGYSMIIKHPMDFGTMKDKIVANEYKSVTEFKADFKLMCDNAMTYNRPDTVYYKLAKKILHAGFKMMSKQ
Method: as §3, §4

PHIP(1) = target: T5, PHIP(1) (Homo sapiens, UniProt Q8WWQ0); assay: ALPHA selectivity panel, PHIP(1); type: binding; details: 25 μM compound, ALPHA assay
T5 construct: the bromodomains from ATAD2, BAZ1A, BAZ2A, BAZ2B, BRD9, BRPF3, CECR2, GCN5L2, PHIP(1), PB1(1), and TIF1α; made in house
Method: as §3, §4

GCN5L2 = target: T6, GCN5L2 (Homo sapiens, UniProt Q92830); assay: ALPHA selectivity panel, GCN5L2; type: binding; details: 25 μM compound, ALPHA assay
T6 construct: the bromodomains from ATAD2, BAZ1A, BAZ2A, BAZ2B, BRD9, BRPF3, CECR2, GCN5L2, PHIP(1), PB1(1), and TIF1α; made in house
T6 sequence (Q92830 728-832 limits assumed): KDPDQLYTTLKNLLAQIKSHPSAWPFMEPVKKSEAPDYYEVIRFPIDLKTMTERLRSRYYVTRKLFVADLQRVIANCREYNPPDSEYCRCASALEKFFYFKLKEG
Method: as §3, §4

BRPF3 = target: T7, BRPF3 (Homo sapiens, UniProt Q9ULD4); assay: ALPHA selectivity panel, BRPF3; type: binding; details: 25 μM compound, ALPHA assay
T7 construct: the bromodomains from ATAD2, BAZ1A, BAZ2A, BAZ2B, BRD9, BRPF3, CECR2, GCN5L2, PHIP(1), PB1(1), and TIF1α; made in house
T7 sequence (Q9ULD4 589-693 limits assumed): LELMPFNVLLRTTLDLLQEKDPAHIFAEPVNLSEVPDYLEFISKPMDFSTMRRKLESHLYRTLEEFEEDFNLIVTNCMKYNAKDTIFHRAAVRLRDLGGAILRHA
Method: as §3, §4

CECR2 = target: T8, CECR2 (Homo sapiens, UniProt Q9BXF3); assay: ALPHA selectivity panel, CECR2; type: binding; details: 25 μM compound, ALPHA assay
T8 construct: the bromodomains from ATAD2, BAZ1A, BAZ2A, BAZ2B, BRD9, BRPF3, CECR2, GCN5L2, PHIP(1), PB1(1), and TIF1α; made in house
Method: as §3, §4

PB1(1) = target: T9, PB1(1) (Homo sapiens, UniProt Q86U86); assay: ALPHA selectivity panel, PB1(1); type: binding; details: 25 μM compound, ALPHA assay
T9 construct: the bromodomains from ATAD2, BAZ1A, BAZ2A, BAZ2B, BRD9, BRPF3, CECR2, GCN5L2, PHIP(1), PB1(1), and TIF1α; made in house
Method: as §3, §4

CREBBP bromodomain = target: T10, CREBBP bromodomain (Homo sapiens, UniProt Q92793); assay: AlphaScreen peptide displacement assay (ALPHA), CREBBP; type: binding; details: 25 μM compound
T10 construct: made in house

[3] = test system: HeLa (cervical adenocarcinoma) cells; assay: WST-1 viability assay, HeLa cells; type: cell-based; details: Homo sapiens, viability after 72 h incubation using MTS, read-out: IC50, HeLa (cervical adenocarcinoma)
[4] = test system: U2OS (osteosarcoma) cells; assay: WST-1 viability assay, U2OS cells; type: cell-based; details: Homo sapiens, viability after 72 h incubation using MTS, read-out: IC50, U2OS (osteosarcoma)
BAZ1A = target: T11, BAZ1A (Homo sapiens, UniProt Q9NRL2); assay: ALPHA selectivity panel, BAZ1A; type: binding; details: 25 μM compound, ALPHA assay
T11 construct: the bromodomains from ATAD2, BAZ1A, BAZ2A, BAZ2B, BRD9, BRPF3, CECR2, GCN5L2, PHIP(1), PB1(1), and TIF1α; made in house
T11 sequence (Q9NRL2 1430-1533 limits assumed): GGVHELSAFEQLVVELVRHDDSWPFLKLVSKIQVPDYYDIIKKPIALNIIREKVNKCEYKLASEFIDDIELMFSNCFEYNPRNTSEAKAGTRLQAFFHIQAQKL
Method: as §3, §4

BAZ2A = target: T12, BAZ2A (Homo sapiens, UniProt Q9UIF9); assay: ALPHA selectivity panel, BAZ2A; type: binding; details: 25 μM compound, ALPHA assay
T12 construct: the bromodomains from ATAD2, BAZ1A, BAZ2A, BAZ2B, BRD9, BRPF3, CECR2, GCN5L2, PHIP(1), PB1(1), and TIF1α; made in house
T12 sequence (Q9UIF9 1793-1897 limits assumed): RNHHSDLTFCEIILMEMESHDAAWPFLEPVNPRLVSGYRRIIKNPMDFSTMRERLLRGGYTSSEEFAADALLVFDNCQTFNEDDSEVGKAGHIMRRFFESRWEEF
Method: as §3, §4

ATAD2 = target: T13, ATAD2 (Homo sapiens, UniProt Q6PL18); assay: ALPHA selectivity panel, ATAD2; type: binding; details: 25 μM compound, ALPHA assay
T13 construct: the bromodomains from ATAD2, BAZ1A, BAZ2A, BAZ2B, BRD9, BRPF3, CECR2, GCN5L2, PHIP(1), PB1(1), and TIF1α; made in house
T13 sequence (Q6PL18 980-1092 limits assumed): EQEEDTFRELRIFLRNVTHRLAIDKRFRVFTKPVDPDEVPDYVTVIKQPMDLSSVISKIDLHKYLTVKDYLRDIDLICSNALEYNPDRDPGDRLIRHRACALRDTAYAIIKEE
Method: as §3, §4

T8 sequence (Q9BXF3 434-538 limits assumed): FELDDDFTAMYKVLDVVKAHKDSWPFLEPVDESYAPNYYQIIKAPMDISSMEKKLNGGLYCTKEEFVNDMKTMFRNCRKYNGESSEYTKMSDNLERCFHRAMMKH
T9 sequence (Q86U86 41-151 limits assumed): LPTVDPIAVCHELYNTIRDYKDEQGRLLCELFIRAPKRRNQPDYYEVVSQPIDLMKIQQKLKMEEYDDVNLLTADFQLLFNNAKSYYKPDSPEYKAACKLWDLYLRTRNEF
T10 sequence (Q92793 1085-1192 limits assumed): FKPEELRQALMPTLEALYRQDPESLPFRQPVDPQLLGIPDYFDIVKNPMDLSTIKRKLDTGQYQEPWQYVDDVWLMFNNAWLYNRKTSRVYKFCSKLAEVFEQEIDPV

- selectivity for BRD4(1) over CREBBP bromodomain (BRD4(1); comparison of ALPHA IC50 values): approximately 6 fold
- ligand efficiency (BRD4(1); for BRD4(1)): 0.39
- lipophilic ligand efficiency (BRD4(1); for BRD4(1)): 3.12
Structure (SMILES): CCOc1cc(-c2c(C)noc2C)cc(C(C)O)c1 (stereo not shown) [Compound 3]

Structure (SMILES): CN1CCC(CNc2ccc3ncc(-c4cccc(OC(F)(F)F)c4)n3n2)CC1 [SGI-1176, SGI-1776]
- IC50 (MV4;11 (AML) cells): 0.053 µM

Structure (SMILES): CC(=O)Oc1cc(-c2c(C)noc2C)cc(C(O)c2ccccc2)c1 (stereo not shown) [Compound 9, 3-(3,5-Dimethylisoxazol-4-yl)-5-(hydroxy(phenyl)methyl)phenyl Acetate]
- effect on viability of A549 cells [1]: markedly reduced the viability
- effect on viability of H1975 cells [2]: markedly reduced the viability

- percentage inhibition of BAZ2B bromodomain (BAZ2B): little affinity
- inhibition at 25 µM (BAZ2B; read-out: percentage inhibition of BAZ2B bromodomain): < 25%
- percentage inhibition of TIF1α bromodomain (TIF1α): little affinity
- inhibition at 25 µM (TIF1α; read-out: percentage inhibition of TIF1α bromodomain): < 25%
- percentage inhibition of BRD9 bromodomain (BRD9): little affinity
- inhibition at 25 µM (BRD9; read-out: percentage inhibition of BRD9 bromodomain): < 25%
- percentage inhibition of PHIP(1) bromodomain (PHIP(1)): little affinity
- inhibition at 25 µM (PHIP(1); read-out: percentage inhibition of PHIP(1) bromodomain): < 25%
- percentage inhibition of GCN5L2 bromodomain (GCN5L2): little affinity
- inhibition at 25 µM (GCN5L2; read-out: percentage inhibition of GCN5L2 bromodomain): < 25%
- inhibition at 25 µM (BRD4(1); 25 μM compound, ALPHA assay, read-out: inhibition of the BRD4(1) bromodomain): ~100%
- percentage inhibition of BRPF3 bromodomain (BRPF3): little affinity
- inhibition at 25 µM (BRPF3; read-out: percentage inhibition of BRPF3 bromodomain): < 25%
- percentage inhibition of CECR2 bromodomain (CECR2): little affinity
- inhibition at 25 µM (CECR2; read-out: percentage inhibition of CECR2 bromodomain): < 25%
- percentage inhibition of PB1(1) bromodomain (PB1(1)): little affinity
- inhibition at 25 µM (PB1(1); read-out: percentage inhibition of PB1(1) bromodomain): < 25%
- inhibition at 25 µM (CREBBP bromodomain): ~100%
- IC50 [3]: 24 µM
- IC50 [4]: 19 µM
- percentage inhibition of BAZ1A bromodomain (BAZ1A): little affinity
- inhibition at 25 µM (BAZ1A; read-out: percentage inhibition of BAZ1A bromodomain): < 25%
- percentage inhibition of BAZ2A bromodomain (BAZ2A): little affinity
- inhibition at 25 µM (BAZ2A; read-out: percentage inhibition of BAZ2A bromodomain): < 25%
- percentage inhibition of ATAD2 bromodomain (ATAD2): little affinity
- inhibition at 25 µM (ATAD2; read-out: percentage inhibition of ATAD2 bromodomain): < 25%
Structure (SMILES): Cc1noc(C)c1-c1cc(O)cc(C(O)c2ccccc2)c1 (stereo not shown) [Compound 8, 3-(3,5-Dimethylisoxazol-4-yl)-5-(hydroxy(phenyl)methyl)phenol]
- effect on viability of A549 cells [1]: markedly reduced the viability
- effect on viability of H1975 cells [2]: markedly reduced the viability
